Results from US20110070232A1, “Combination Therapy with an Antitumor Alkaloid” (Pharma Mar, S.A., priority 2008, published 2011).
pIC50: −log10 of the molar value. ≈ marks a conversion by molar mass, not a printed value. Read-outs that look alike come from different tables or passages of the source.

Assays:
[1] = system: AGS human gastric carcinoma cell line; assay: IC50 determination, MTS assay, 72 h (Example 1); format: cell-based; conditions: 72 hours of drug exposure
Summary of the method: (§1)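 Cells are seeded at 10,000 per well and allowed to attach for 24 h, then exposed to compound for 72 h. Viability is read by MTS/PMS, 4 h at 37 °C, with OD at 490 nm, and referenced to a time-0 plate. IC50 is averaged from two to four assays.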

[2] = system: HGC-27 human gastric carcinoma cell line; assay: IC50 determination, MTS assay, 72 h (Example 1); format: cell-based; conditions: 72 hours of drug exposure
Summary of the method: as §1

[3] = system: Hs746T human gastric carcinoma cell line; assay: IC50 determination, MTS assay, 72 h (Example 1); format: cell-based; conditions: 72 hours of drug exposure
Summary of the method: as §1

[4] = system: UM-UC-3 human bladder carcinoma cell line; assay: IC50 determination, MTS assay, 72 h (Example 2); format: cell-based
Method: The following agents were evaluated in combination with PM00104: gemcitabine (Gemzar®) and cisplatin. The human bladder carcinoma cell lines selected for this assay were the following: 5637 and UM-UC-3 cell lines. 5637 cell line was grown in RPMI 1640 medium supplemented with 10% FBS, 1.5 g/L sodium bicarbonate, 4.5 g/L glucose, 10 mM HEPES, 1 mM sodium pyruvate, and 2 mM L-glutamine. UM-UC-3 cell line was grown in MEM Eagle's medium supplemented with 10% FBS and 2 mM L-glutamine.
a. […] It was used the same methodology as those disclosed in Example 1.
IC50 values were calculated from an average of three to four assays for each of the test agents.

MIA PaCa-2 tumors = format: in vivo, mice; conditions: mg/kg/day: PM00104 0.90 IV
Text: Female athymic nude mice (Harlan Sprague Dawley, Madison, Wis.) were utilized for all experiments. Animals were housed in ventilated rack caging with food and water ad libitum. The mice were acclimated for at least 5 days prior to tumor implantation with a tumor cell suspension.
The tumor model used in these studies was MIAPaCA-2 cell line, which was obtained from the ATCC (Manassas, Va.).
Each animal was implanted subcutaneously (SC) on the right flank, using a trochar, with 1×10^7 MIAPaCA-2 cells, from in vitro passage 18, in a 0.2 mL suspension of 50% Matrigel/50% serum free medium, without antibiotics. Matrigel is a biological extracellular matrix that is liquid at 4° C. and solid at 37° C., and it promotes tumor growth by maintaining the cells in close association in a localized area. Bacterial cultures were performed on aliquots of the cells prepared for implantation.
Tumor measurements were determined by using Vernier calipers. The formula to calculate volume for a prolate ellipsoid was used to estimate tumor volume (mm^3) from 2-dimensional tumor measurements: Tumor volume (mm^3)=[L×W^2]÷2, where L is the length and it is the longest diameter in mm, and W is the width and it is the shortest diameter in mm of a tumor. Assuming unit density, volume was converted to weight (i.e., 1 mm^3=1 mg).
Treatments were initiated on DPI (Day Post Implantation) 13. In these experiments, the combination therapy groups were treated by co-administering the two drugs at the same time, with no attempt to sequence the treatments.
Tumor size measurements were recorded twice weekly from the treatment initiation until the termination of the study.
Mean, standard deviation and standard error of the mean were determined for tumor volume for all animal groups at all assessments. Student's t test was performed on tumor volumes at each measurement day, including at the end of the study, to determine whether there were any statistically significant differences between combination treatment groups and single monotherapy treatment groups.
The definition and criteria for the evaluation of potentiation and the degree of additivity for the combination therapy were as follows:
Additivity was determined as discussed above by comparing the % of tumor growth inhibition of the monotherapy groups versus those of the combination group as follows: • 1. Determine the % of tumor growth inhibition, as 100-% T/C, for each of the drugs administered as monotherapy at the doses used in the combinations. % T/C was obtained by comparing the mean tumor weight in the treatment groups (T) to the mean tumor weight in the control group (C) (T/C×100%). • 2. The two scores were added together to determine the “expected response” if each agent produced the same response as it did when administered as monotherapy. • 3. This “expected response” was subtracted from the % of tumor growth inhibition determined for the combination therapy group: • a. […] If the resulting number was close to zero, the effect of combining the two drugs was determined as additive. • c.

[5] = system: MCF-7 (breast cancer) cell line; assay: IC50 determination, MIT (tetrazolium) assay, 72 h (Example 18); format: cell-based; conditions: Homo sapiens, MCF7; MCF-7, 72 hours of drug exposure
Method: (§2) Before plating, cell cultures were trypsinized and cell number estimated using an automated flow cytometer.
(§3) Cells were harvested and seeded in 96 well microtiter plates at the appropriate cell density (5,000-10,000 cells) in 150 μL of media and incubated for 24 hours to allow the cells to attach before drug addition.
(§4) After the incubation period (72 hours), 50 μL of MIT solution was added to each microtiter well and incubated for further 8 hours at 37° C. The culture medium was then removed and 50 μl, of DMSO were added to dissolve the MIT crystals. Optical densities were read at 540 nm on spectrophotometer microplate reader.
(§5) IC50 values were calculated from an average of two to four assays for each of the test agents.

[6] = system: MDA-MB-231 (breast cancer) cell line; assay: as above; format: cell-based; conditions: Homo sapiens; MDA-MB-231, 72 hours of drug exposure
Method: as §2, §3, §4, §5

[7] = Homo sapiens, UMUC3, 72 hours of drug exposure, read-out: IC50
[8] = day 13, gemcitabine 140 IP, erlotinib 100 PO
[9] = day 15, gemcitabine 140 IP, erlotinib 100 PO
[10] = day 19, gemcitabine 140 IP, erlotinib 100 PO
[11] = day 22, gemcitabine 140 IP, erlotinib 100 PO
[12] = day 27, gemcitabine 140 IP, erlotinib 100 PO
[13] = day 29, gemcitabine 140 IP, erlotinib 100 PO
[14] = day 33, gemcitabine 140 IP, erlotinib 100 PO
[15] = day 36, gemcitabine 140 IP, erlotinib 100 PO

Compound | IC50 ([1]; Homo sapiens, read-out: IC50) [µg/mL] | IC50 ([2]; Homo sapiens, read-out: IC50) [µg/mL] | IC50 ([3]; Homo sapiens, read-out: IC50) [µg/mL] | IC50 [4, 7] [µg/mL] | % Inhibition (MIA PaCa-2 tumors; [8]) [%] | % T/C on day (MIA PaCa-2 tumors; [8]) [%] | % Inhibition (MIA PaCa-2 tumors; [9]) [%] | % T/C on day (MIA PaCa-2 tumors; [9]) [%] | % Inhibition (MIA PaCa-2 tumors; [10]) [%] | % T/C on day (MIA PaCa-2 tumors; [10]) [%] | % Inhibition (MIA PaCa-2 tumors; [11]) [%] | % T/C on day (MIA PaCa-2 tumors; [11]) [%] | % T/C on day (MIA PaCa-2 tumors; [12]) [%] | % Inhibition (MIA PaCa-2 tumors; [13]) [%] | % T/C on day (MIA PaCa-2 tumors; [13]) [%] | % T/C on day (MIA PaCa-2 tumors; [14]) [%] | % Inhibition (MIA PaCa-2 tumors; [15]) [%] | % T/C on day (MIA PaCa-2 tumors; [15]) [%] | pIC50 [5] | pIC50 [6] | also measured
O=c1[nH]cc(F)c(=O)[nH]1 [5-FU, 5-fluorouracil] | 0.532 (≈ 4.09 µM) | 0.434 (≈ 3.34 µM) | 5.46 (≈ 42 µM) | – | – | – | – | – | – | – | – | – | – | – | – | – | – | – | – | – | –
N.N.[Cl][Pt][Cl] [Cisplatin, cisplatin] | – | – | – | – | – | – | – | – | – | – | – | – | – | – | – | – | – | – | – | – | IC50 [1]: 25.5 µg/mL; IC50 [2]: 25.6 µg/mL; IC50 [3]: 39.2 µg/mL; IC50 ([4]; 72 hours of drug exposure): 0.53 µg/mL
Nc1ccn([C@@H]2O[C@H](CO)[C@@H](O)C2(F)F)c(=O)n1 [Gemcitabine, gemcitabine] | – | – | – | 0.022 | 0.0 | 100.0 | −5.7 | 105.7 | 3.0 | 97.0 | 14.5 | 85.5 | 89.5 | 13.7 | 86.3 | 87.7 | −0.3 | 100.3 | 8.89 | 7.62 | –
COc1c(C)cc2c(c1O)[C@@H]1[C@@H]3Cc4c(OC(C)=O)c(C)c5c(c4[C@H](CNC(=O)/C=C/c4cccc(C(F)(F)F)c4)N3[C@@H](O)[C@H](C2)N1C)OCO5 [PM00104] | 0.00521 (≈ 0.00734 µM) | 0.00371 (≈ 0.00523 µM) | 0.00534 (≈ 0.00752 µM) | 0.0069 | 0.9 | 99.1 | 12.9 | 87.1 | 22.8 | 77.2 | 39.2 | 60.8 | 69.2 | 40.0 | 60.0 | 63.9 | 43.4 | 56.6 | 9.00 | 8.22 | % Inhibition (MIA PaCa-2 tumors; day 13, erlotinib 50 PO): 0.9%; % Inhibition (MIA PaCa-2 tumors; day 15, erlotinib 50 PO): 12.9%; % Inhibition (MIA PaCa-2 tumors; day 19, erlotinib 50 PO): 22.8%; % Inhibition (MIA PaCa-2 tumors; day 22, erlotinib 50 PO): 39.2%; % Inhibition (MIA PaCa-2 tumors; day 27, erlotinib 50 PO): 30.8%; % Inhibition (MIA PaCa-2 tumors; [12]): 30.8%; % Inhibition (MIA PaCa-2 tumors; day 29, erlotinib 50 PO): 40.0%; % Inhibition (MIA PaCa-2 tumors; day 33, erlotinib 50 PO): 36.1%; % Inhibition (MIA PaCa-2 tumors; [14]): 36.1%; % Inhibition (MIA PaCa-2 tumors; day 36, erlotinib 50 PO): 43.4%
C#Cc1cccc(Nc2ncnc3cc(OCCOC)c(OCCOC)cc23)c1 [erlotinib] | – | – | – | – | −3.3 | 103.3 | −15.4 | 115.4 | −22.5 | – | 3.6 | 96.4 | 96.0 | 3.7 | 96.4 | 102.7 | −6.0 | 106.0 | – | – | % Inhibition (MIA PaCa-2 tumors; day 13, erlotinib 50 PO): −1.5%; % T/C on day (MIA PaCa-2 tumors; day 13, erlotinib 50 PO): 101.5%; % Inhibition (MIA PaCa-2 tumors; day 15, erlotinib 50 PO): 3.3%; % T/C on day (MIA PaCa-2 tumors; day 15, erlotinib 50 PO): 96.7%; % Inhibition (MIA PaCa-2 tumors; day 19, erlotinib 50 PO): −13.2%; % T/C on day (MIA PaCa-2 tumors; day 19, erlotinib 50 PO): 113.2%; % Inhibition (MIA PaCa-2 tumors; day 22, erlotinib 50 PO): −4.4%; % T/C on day (MIA PaCa-2 tumors; day 22, erlotinib 50 PO): 104.4%; % Inhibition (MIA PaCa-2 tumors; day 27, erlotinib 50 PO): −48.6%; % T/C on day (MIA PaCa-2 tumors; day 27, erlotinib 50 PO): 148.6%; % Inhibition (MIA PaCa-2 tumors; [12]): 4.0%; % Inhibition (MIA PaCa-2 tumors; day 29, erlotinib 50 PO): −32.0%; % T/C on day (MIA PaCa-2 tumors; day 29, erlotinib 50 PO): 132.0%; % Inhibition (MIA PaCa-2 tumors; day 33, erlotinib 50 PO): −15.4%; % T/C on day (MIA PaCa-2 tumors; day 33, erlotinib 50 PO): 115.3%; % Inhibition (MIA PaCa-2 tumors; [14]): −2.7%; % Inhibition (MIA PaCa-2 tumors; day 36, erlotinib 50 PO): −17.7%; % T/C on day (MIA PaCa-2 tumors; day 36, erlotinib 50 PO): 117.7%
CC(=O)O[C@H]1C(=O)[C@@]2(C)[C@H]([C@H](OC(=O)c3ccccc3)[C@]3(O)C[C@H](OC(=O)[C@H](O)[C@@H](NC(=O)c4ccccc4)c4ccccc4)C(C)=C1C3(C)C)[C@]1(OC(C)=O)CO[C@@H]1C[C@@H]2O [paclitaxel] | – | – | – | – | – | – | – | – | – | – | – | – | – | – | – | – | – | – | 7.15 | 8.22 | –
